Structures are written as SMILES. Converted amounts (≈) assume the structure as drawn. Where two headings read alike, the source gives them in different places.

ED50 and MIC data for four compounds are collected here from patent US4801600A, “Aminomethyl oxooxazolidinyl cycloalkylbenzene derivatives useful as antibacterial agents” (E. I. Du Pont de Nemours and Company, priority 1987, dated 1989).

Experiment [1] concerns Staphylococcus aureus. As to the kind of experiment: Acute lethal mouse model, intraperitoneal Staphylococcus aureus infection. Type of experiment: in vivo. As to conditions: 168 h, mice dosed 1 h and 4 h post-infection. How it is done: Determinations of in vivo efficacy are performed by inoculating mice intraperitoneally with cultures of the infecting organism diluted to produce 100% of mortality in control animals within twenty-four hours. The culture of S. aureus used to infect the animals was diluted to the required bacterial density using 5% aqueous hog gastric mucin. The compounds are dissolved or suspended in 0.25% aqueous Methocal® (Methocel®: Hydroxypropyl Methylcellulose, E15 Premium, Dow Chemical Company) for oral administration or sterile distilled water containing 5% dimethylsulfoxide (Fisher Scientific Company, Fairlawn, N.J.) for subcutaneous administration. The mice are dosed at one hour and at four hours post-infection. Mortality is recorded daily until test termination seven days post infection. The number of survivors in each treatment group on the seventh day after infection is used in the calculation of the ED50, the dose of compound that protects 50% of the mice (Litchfield, J. T. and Wildoxon. A simplified method for evaluating dose-effect experiments. J. Pharmacol Exp. Ther., 96:99-113, 1949 ).

In experiment [2] the test system is Escherichia coli. As to the kind of experiment: In vitro broth microdilution MIC, Escherichia coli. Format: cell-based. As to conditions: 24-hour MIC, Mueller-Hinton broth, read-out: Minimum Inhibitory Concentration, Escherichia coli. The source says:
(§1) A standard microdilution method (National Committee for Clinical Standards. Tentative standard M7-T. Standard methods for dilution antimicrobial susceptibility tests for bacteria that grow aerobically. National Committee for Clinical Laboratory Standards, Villanova, PA. 1982) with Mueller-Hinton broth is used to determine the 24-hour minimal inhibitory concentrations (MIC's) for test strains of Staphylococcus aureus and Escherichia coli.
A general note: In broth dilution the organism is exposed to a series of concentrations in liquid medium.

For experiment [3], the system named is Staphylococcus aureus. As to the kind of experiment: In vitro broth microdilution MIC, Staphylococcus aureus. Format: cell-based. The note with it: 24-hour MIC, Mueller-Hinton broth, read-out: Minimum Inhibitory Concentration, Staphylococcus aureus.
Text: as §1

[4] abbreviates: oral, survival at day 7, read-out: ED50, Oral Administration.
The mark [5] stands for this setting: sc, subcutaneous, survival at day 7, read-out: ED50, Subcutaneous Administration.

Turning to `CC(=O)NCC1CN(c2ccc3c(c2)CCC3=O)C(=O)O1` (single isomer, unassigned) [Example 16, (l)-N-[3-(2,3-Dihydro-1-oxo-1H-inden-5-yl)-2-oxooxazolidin-5-ylmethyl]acetamide], the ED50 stood at 1.6 mg/kg in experiment [1] (setting [4]) and 1.2 mg/kg in experiment [1] (setting [5]). For the same compound, the MIC in experiment [2] was over 128 µg/mL; in experiment [3], 2 to 4 µg/mL (≈ 6.94 to 13.9 µM).

As for `CC(=O)NCC1CN(c2ccc3c(c2)CCC3=NN2CCN(C)CC2)C(=O)O1` (single isomer, unassigned) [Example 18, (l)-N-[3-[1,2-Dihydro-1-(4-methyl-1-piperazinylimino)-1H-inden-5-yl]-2-oxooxazolidin-5-ylmethyl]acetamide], the ED50 in experiment [1] (setting [4]) worked out at 13.9 mg/kg; in experiment [1] (setting [5]), 20.3 mg/kg. Moreover, the MIC in experiment [2] is over 128 µg/mL; in experiment [3], 8 to 16 µg/mL (≈ 20.8 to 41.5 µM).

On to `CC(=O)NCC1CN(c2ccc3c(c2)CCC3O)C(=O)O1` (single isomer, unassigned) [Example 17, (l)-N-[3-(2,3-Dihydro-1-hydroxy-1H-inden-5-yl)-2-oxooxazolidin-5-ylmethyl]acetamide], for which the results for the ED50 in experiment [1] (setting [4]) and in experiment [1] (setting [5]) were 1.9 mg/kg and 1.8 mg/kg, respectively. Also, the MIC is over 128 µg/mL in experiment [2] and 8 µg/mL (≈ 27.6 µM) in experiment [3].

`CC(=O)NCC1CN(c2ccc3c(c2)CCC3)C(=O)O1` (single isomer, unassigned) [Example 1F, (l)-N-[3-(2,3-Dihydro-1H-inden-5-yl)-2-oxooxazolidin-5-ylmethyl]acetamide]: the ED50 amounted to 2.2 mg/kg in experiment [1] (setting [4]) and 1.7 mg/kg in experiment [1] (setting [5]). In addition, the MIC in experiment [2] is over 128 µg/mL; in experiment [3] it was 2 µg/mL (≈ 7.29 µM).
